Laboratory results published in US7964613B2 (Asahi Kasei Pharma Corporation, priority 2007, dated 2011).

Each molecule was assayed against T1, human ROCK1 (Homo sapiens, UniProt Q13464) (assay: Measurement of Rho kinase inhibitory activity (ELISA of MBS phosphorylation)). Details: human ROCK1, MBS substrate, 100 μM ATP, 30° C. for 10 minutes.
T1 construct: His tag (N); host or cells: insect cells (Sf9)
T1 sequence (Q13464 1-727): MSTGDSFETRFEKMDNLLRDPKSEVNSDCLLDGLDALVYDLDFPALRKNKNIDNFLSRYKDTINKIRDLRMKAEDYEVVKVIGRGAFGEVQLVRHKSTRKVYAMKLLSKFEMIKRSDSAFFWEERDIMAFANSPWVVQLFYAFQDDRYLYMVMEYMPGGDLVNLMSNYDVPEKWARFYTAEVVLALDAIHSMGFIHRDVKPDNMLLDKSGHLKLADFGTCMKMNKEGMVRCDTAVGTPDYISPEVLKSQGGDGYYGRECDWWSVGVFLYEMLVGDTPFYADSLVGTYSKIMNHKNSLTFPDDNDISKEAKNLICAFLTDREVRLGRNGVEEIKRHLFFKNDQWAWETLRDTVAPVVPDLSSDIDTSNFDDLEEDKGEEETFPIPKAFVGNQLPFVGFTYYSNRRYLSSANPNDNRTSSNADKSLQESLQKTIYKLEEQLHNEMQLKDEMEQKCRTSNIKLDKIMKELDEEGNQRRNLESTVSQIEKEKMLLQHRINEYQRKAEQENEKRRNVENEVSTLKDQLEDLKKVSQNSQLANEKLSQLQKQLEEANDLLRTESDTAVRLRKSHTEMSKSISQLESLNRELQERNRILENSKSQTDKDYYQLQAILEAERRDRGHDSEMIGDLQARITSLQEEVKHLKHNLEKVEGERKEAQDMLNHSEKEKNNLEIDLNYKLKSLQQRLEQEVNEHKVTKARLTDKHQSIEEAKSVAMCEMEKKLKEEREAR
Assay type: biochemical
Experimental: In this test, human ROCK1 was used as Rho kinase, MBS (myosin binding subunit, subunit constituting myosin phosphatase) was used as the substrate of Rho kinase, and an anti-phosphorylated MBS antibody was used for detection of phosphorylation. The activity for inhibiting Rho kinase was determined by measuring phosphorylation of MBS by the Rho kinase by ELISA in the presence of an appropriately diluted test compound. As the Rho kinase used, a recombinant protein (N-terminal His-tagged recombinant human ROCK1 residues (1Met-[…])) was used, which was produced in insect cells (Sf9) using a sequence (1-727), of which activity was confirmed in the paper of Ishizaki et al. (Ishizaki, T. et al., FEBS Letters, 404, pp 118-124, 1997), based on the sequence of human ROCK1 (p 160 ROCK) described in the report of Ishizaki et al. (Ishizaki, T. et al., EMBO J., 15, pp 1885-1893, 1996). Further, as the MBS protein and anti-phosphorylated MBS antibody, those prepared according to the method described in the paper of Ito et al. (Ito, K et al., J. Physiol., 546, pp 823-836, 2003) were used.
A solution of MBS (Asahi Kasei Pharma, lot No, 040814n7-10) diluted with PBS to an appropriate concentration was added to an ELISA plate (Maxisorp, Nunc), and left, stand overnight at 4° C., and then the wells were washed twice with a washing solution (WB, washing buffer, 0.1% Tween 20/PBS). To the wells were added 1% bovine serum albumin (Sigma)/PBS, and left for 1 to 3 hours, and then the wells were washed 5 times with WB to prepare a substrate-immobilized plate. Onto this plate, a reaction mixture (5 mM MgSO4/0.1 M NaCl/20 mM HEPES (pH 7.5)/100 μM ATP/5 mM DTT), a test compound, and appropriately diluted human ROCK1 (Asahi Kasei Pharma, lot No, 030126.120-22) were added, and then reacted at 30° C. for 10 minutes. Then, 0.2 M EDTA (pH 7.5) was added to terminate the reaction, and the wells were washed 5 times with WB. A rabbit anti-phosphorylated MBS antibody solution (Asahi Kasei Pharma, lot No, 122676431) diluted 10,000 times with WB containing 1% bovine serum albumin was added to the wells, and after the reaction for 1 hour, the wells were washed 5 times with WB. Goat anti-rabbit IgG-HRP (Zymed) diluted 1,000 times with WB containing 1% bovine serum albumin was added to the wells as the secondary detection antibody and the mixture was reacted for 1 hour, and then the wells were washed 5 times with WB. An OPD (o-phenylenediamine) solution (1 mg/ml OPD, Sigma), 5.1 g/l of citric acid monohydrate, and 18.4 g/l of Na2HPO4.12H2O were added to the wells to develop color, […] was added 5 minutes later to terminate the color development, and absorbance was measured at 490 nm.
The inhibition ratio was calculated as follows. Inhibition ratio(%)=[…]
Further, the inhibition ratio was calculated with changing the concentration of the test compound, and a compound concentration providing an inhibition ratio of 50% was obtained as IC50.
For C=Cc1cncc2cccc(S(=O)(=O)N3CC[C@H](N)C3)c12 [Example 9-1, (S)-3-Amino-1-(4-vinyl-5-isoquinolinesulfonyl)pyrrolidine], the IC50 was under 1 µM. For Cn1cccc1CN[C@H]1CCN(S(=O)(=O)c2cccc3cncc(Br)c23)C1 [Example 1-20], the IC50 was under 1 µM. NCCCN[C@H]1CCN(S(=O)(=O)c2cccc3cncc(Cl)c23)C1 [Example 62-1, (S)-3-(3-Aminopropyl)amino-1-(4-chloro-5-isoquinolinesulfonyl)pyrrolidine] was tested, and the IC50 was 1 to 3 µM. With O=S(=O)(c1cccc2c(O)ncc(Cl)c12)N1CC[C@H](NC2CCOCC2)C1 [Example 64-1, (S)-3-(4-Tetrahydropyranyl)amino-1-(1-hydroxy-4-chloro-5-isoquinolinesulfonyl)pyrrolidine] the IC50 was under 1 µM. Work on Cc1cncc2cccc(S(=O)(=O)N3CC[C@H](NC4CCCC4)C3)c12 [Example 8-29] yielded an IC50 of 1 to 3 µM. Nc1ncc(Br)c2c(S(=O)(=O)N3CC[C@H](N)C3)cccc12 [Example 41-1, (S)-3-Amino-1-(1-amino-4-bromo-5-isoquinolinesulfonyl)pyrrolidine] was tested, and the IC50 was under 1 µM. In the case of Cc1ccc(CN[C@H]2CCN(S(=O)(=O)c3cccc4cncc(C)c34)C2)o1 [Example 8-16], the IC50 is reported as 1 to 3 µM. Molecule COc1ccc(CN[C@H]2CCN(S(=O)(=O)c3cccc4cncc(F)c34)C2)cc1 [Example 18-7] has an IC50 of under 1 µM. Work on CS(=O)(=O)N[C@H]1CCN(S(=O)(=O)c2cccc3cncc(Cl)c23)C1 [Example 50-1, (S)-3-(Methanesulfonylamino)-1-(4-chloro-5-isoquinolinesulfonyl)pyrrolidine] yielded an IC50 of 1 to 3 µM. Molecule O=S(=O)(c1cccc2cncc(Br)c12)N1CC[C@H](NCCc2ccccc2)C1 [Example 1-13] has an IC50 of under 1 µM. For C#Cc1cncc2cccc(S(=O)(=O)N3CC[C@H](NC4CCOCC4)C3)c12 [Example 10-31], the IC50 was 1 to 3 µM. With Cc1ccc(CN[C@H]2CCN(S(=O)(=O)c3cccc4cncc(F)c34)C2)o1 [Example 18-16] the IC50 was 1 to 3 µM. Molecule CCCN[C@H]1CCN(S(=O)(=O)c2cccc3cncc(C)c23)C1 [Example 8-5] has an IC50 of under 1 µM. Molecule Cc1ccc(CN[C@H]2CCN(S(=O)(=O)c3cccc4cncc(C)c34)C2)s1 [Example 8-18] has an IC50 of 1 to 3 µM. Molecule O=S(=O)(c1cccc2cncc(Br)c12)N1CC[C@H](NCc2ccccc2)C1 [Example 1-6] has an IC50 of under 1 µM. NCC1CCN(S(=O)(=O)c2cccc3cncc(Cl)c23)C1 (stereo not shown) [Example 44, 3-(Aminomethyl)-1-(4-chloro-5-isoquinolinesulfonyl)pyrrolidine] was tested, and the IC50 was under 1 µM. O=S(=O)(c1cccc2cncc(F)c12)N1CC[C@H](NCc2ccc3c(c2)OCO3)C1 [Example 18-8] showed an IC50 of under 1 µM. O=S(=O)(c1cccc2cncc(Cl)c12)N1CC[C@H](NCc2ccc3c(c2)OCO3)C1 [Example 19-8] gave an IC50 of under 1 µM. In the case of COc1ccc(CN[C@H]2CCN(S(=O)(=O)c3cccc4cncc(Br)c34)C2)cc1 [Example 1-7], the IC50 is reported as under 1 µM. In the case of O=S(=O)(c1cccc2cncc(Br)c12)N1CC[C@H](NCc2ccc3c(c2)OCCO3)C1 [Example 1-38], the IC50 is reported as under 1 µM. With NCC1CCN(S(=O)(=O)c2cccc3cncc(Cl)c23)CC1 [Example 52, 4-(Aminomethyl)-1-(4-chloro-5-isoquinolinesulfonyl)piperidine] the IC50 was under 1 µM. Work on COc1ccc(CN[C@H]2CCN(S(=O)(=O)c3cccc4cncc(C)c34)C2)cc1 [Example 8-7] yielded an IC50 of under 1 µM. Work on O=S(=O)(c1cccc2cncc(Cl)c12)N1CC[C@H](NCc2cccs2)C1 [Example 19-17] yielded an IC50 of 1 to 3 µM. N[C@H]1CCN(S(=O)(=O)c2cccc3cncc(C(F)(F)F)c23)C1 [Example 47-1, (S)-3-Amino-1-(4-trifluoromethyl-5-isoquinolinesulfonyl)pyrrolidine] gave an IC50 of 1 to 3 µM. O=S(=O)(c1cccc2cncc(Br)c12)N1CC[C@H](NC2CCC(O)CC2)C1 (stereo partly shown) [Example 1-33] gave an IC50 of 1 to 3 µM. In the case of C#Cc1cncc2cccc(S(=O)(=O)N3CC[C@H](NCc4ccco4)C3)c12 [Example 10-14], the IC50 is reported as 1 to 3 µM. Cc1cncc2cccc(S(=O)(=O)N3CC[C@H](NCc4ccc([N+](=O)[O-])cc4)C3)c12 [Example 8-9] gave an IC50 of 1 to 3 µM. Work on Cc1cncc2cccc(S(=O)(=O)N3CC[C@H](NCc4ccc5c(c4)OCO5)C3)c12 [Example 8-8] yielded an IC50 of under 1 µM. Cc1cncc2cccc(S(=O)(=O)N3CC[C@H](NCC#N)C3)c12 [Example 8-73] was tested, and the IC50 was 1 to 3 µM. With O=S(=O)(c1cccc2cncc(Cl)c12)N1CC[C@H](NCc2ccco2)C1 [Example 19-14] the IC50 was 1 to 3 µM. CCN[C@H]1CCN(S(=O)(=O)c2cccc3cncc(Cl)c23)C1 [Example 19-4] was tested, and the IC50 was 1 to 3 µM. Work on O=S(=O)(c1cccc2cncc(Br)c12)N1CC[C@H](NCc2ccc(O)cc2)C1 [Example 1-11] yielded an IC50 of under 1 µM. Cn1cccc1CN[C@H]1CCN(S(=O)(=O)c2cccc3cncc(Cl)c23)C1 [Example 19-21] was tested, and the IC50 was 1 to 3 µM. Cc1cncc2cccc(S(=O)(=O)N3CC[C@H](NCc4ccccc4)C3)c12 [Example 8-6] was tested, and the IC50 was under 1 µM.

The molecules below were run on rabbit normal intraocular pressure (assay: Intraocular pressure reducing action). Details: Oryctolagus cuniculus, topical; 3 mM aqueous solution, 50 μl to the left eye; max IOP reduction (2, 4, 6 hours) / value immediately before administration; read-out: intraocular pressure reducing degree.
Assay type: in vivo, Japanese white rabbit
Experimental: A Japanese white rabbit having a body weight of about 2 kg was placed in a positioner and naturalized for one week before the experiment. An opthalmologic local anesthesant (Benoxil) was administered to both eyes, and then intraocular pressure was measured by using a tonometer (Classic 30, Solan). A 3 mM aqueous solution of a test compound was administered in a volume of 50 μl to the left eye, and the right eye was not treated (control eye). The intraocular pressure values were measured for the left and right eyes immediately before, and 2, 4 and 6 hours after the administration of the aqueous solution of the test compound, and the difference of the measured values for the left and right eyes was considered an intraocular pressure reduction value of the test medicament at each measurement time. The largest difference of the values for the left and right eyes among the measured values at the measurement times (after 2, 4 and 6 hours) was considered the maximum intraocular pressure reduction value (max ? IOP) of each test medicament. The intraocular pressure reducing degree representing the intraocular pressure reducing action of each test medicament was calculated according to the following formula. Since rabbits show significant daily variation of intraocular pressure, daily variation is added when change of intraocular pressure is measured over time, and the intraocular pressure reducing action may be overestimated. Therefore, we used this calculation method of intraocular pressure reduction value in order to minimize the influence of the variation. Intraocular pressure reducing degree(%)=(max ? IOP/Intraocular pressure value immediately before administration)×100
Molecule C=Cc1cncc2cccc(S(=O)(=O)N3CC[C@H](N)C3)c12 [Example 9-1, (S)-3-Amino-1-(4-vinyl-5-isoquinolinesulfonyl)pyrrolidine] has an inhibition in vivo at 3000 µM of at least 20%. Work on Cn1cccc1CN[C@H]1CCN(S(=O)(=O)c2cccc3cncc(Br)c23)C1 [Example 1-20] yielded an inhibition in vivo at 3000 µM of 10 to 20%. NCCCN[C@H]1CCN(S(=O)(=O)c2cccc3cncc(Cl)c23)C1 [Example 62-1, (S)-3-(3-Aminopropyl)amino-1-(4-chloro-5-isoquinolinesulfonyl)pyrrolidine] was tested, and the inhibition in vivo at 3000 µM was 10 to 20%. O=S(=O)(c1cccc2c(O)ncc(Cl)c12)N1CC[C@H](NC2CCOCC2)C1 [Example 64-1, (S)-3-(4-Tetrahydropyranyl)amino-1-(1-hydroxy-4-chloro-5-isoquinolinesulfonyl)pyrrolidine] was tested, and the inhibition in vivo at 3000 µM was 10 to 20%. Cc1cncc2cccc(S(=O)(=O)N3CC[C@H](NC4CCCC4)C3)c12 [Example 8-29] was tested, and the inhibition in vivo at 3000 µM was 5 to 10%. For COc1ccc(CN[C@H]2CCN(S(=O)(=O)c3cccc4cncc(F)c34)C2)cc1 [Example 18-7], the inhibition in vivo at 3000 µM was 5 to 10%. COCC(=O)N[C@H]1CCN(S(=O)(=O)c2cccc3c(O)ncc(Cl)c23)C1 [Example 68-1, (S)-3-(2-Methoxyacetyl)amino-1-(1-hydroxy-4-chloro-5-isoquinolinesulfonyl)pyrrolidine] showed an inhibition in vivo at 3000 µM of 5 to 10%. Molecule O=C(CN1CCOCC1)N[C@H]1CCN(S(=O)(=O)c2cccc3cncc(Cl)c23)C1 [Example 88, (S)-3-[2-(Morpholin-1-yl)acetyl]amino-1-(4-chloro-5-isoquinolinesulfonyl)pyrrolidine] has an inhibition in vivo at 3000 µM of 10 to 20%. O=C(COc1ccc2nncn2n1)N[C@H]1CCN(S(=O)(=O)c2cccc3cncc(Cl)c23)C1 [Example 107, (S)-3-[2-([1,2,4]Triazolo[4,3-b]pyridazin-6-yloxy)acetyl]amino-1-(4-chloro-5-isoquinolinesulfonyl)pyrrolidine] was tested, and the inhibition in vivo at 3000 µM was 10 to 20%. O=C(CNC(=O)c1cccnc1)N[C@H]1CCN(S(=O)(=O)c2cccc3cncc(Cl)c23)C1 [Example 95, (S)-3-[(2-Nicotinamino)acetyl]amino-1-(4-chloro-5-isoquinolinesulfonyl)pyrrolidine] gave an inhibition in vivo at 3000 µM of 10 to 20%. O=C(CN1CCNCC1)N[C@H]1CCN(S(=O)(=O)c2cccc3cncc(Cl)c23)C1 [Example 91, (S)-3-[2-(piperazin-1-yl)acetyl]amino-1-(4-chloro-5-isoquinolinesulfonyl)pyrrolidine] was tested, and the inhibition in vivo at 3000 µM was 10 to 20%. Molecule O=C(CCn1ccnc1)N[C@H]1CCN(S(=O)(=O)c2cccc3cncc(Cl)c23)C1 [Example 81, (S)-3-[3-(1H-Imidazol-1-yl)propionyl]amino-1-(4-chloro-5-isoquinolinesulfonyl)pyrrolidine] has an inhibition in vivo at 3000 µM of 10 to 20%.
